Marks after values point to notes of the source that are not given here.
Columns and labels:
[1] = system: infectious cerebral edema of rats (pertussis bacteria liquid); experiment: infectious cerebral edema: brain water content and Evans blue content, combination with nimodipine; format: in vivo, SD rats; conditions: JBTA pretreatment 0.5 mg/kg iv, 2 times
Procedure: The model of infectious cerebral edema is same with example 4. It is Studied that piperphentonamine hydrochloride and a blocker for specificity L-type calcium ion channel nimodipine influence on the brain water content and Evans blue (EB) content of infectious cerebral edema, of which the purpose is to provide experimental and theoretical basis for clinical treatment.
Each group is further divided into three time group such as 30 min, 4 h and 24 h group.
Injecting intravenously nimodipine after injecting bacteria for 5 min (Nim group, body weight 0.25 mg/kg), 24 h nimodipine treatment group is repeatedly injected the same dose once per 8 h; nimodipine treatment group pretreated by piperphentonamine hydrochloride is intravenously infused piperphentonamine hydrochloride (0.5 mg/kg, 2 times in total) before experimenting for 48 h and 24 h, then treated with nimodipine after the pretreatment. The operation of physiological saline group being same as bacteria liquid group, is injected the same volume of physiological saline at the same time. 2% Evans blue (EB, 0.2 mL/100 g body weight) is injected from the vein of the sublingua after injecting bacteria or saline in 10 min. Each group of animal is executed by decollating after observing to the specified time, rapidly removed the brain, and remove the leptomeninges and coagulation block of the cortical surface, taking full-thickness brain tissue of the back ⅓ of left hemisphere of the brain (about 0.1˜0.2 g, including gray matter and white matter) as specimens, the water content in brain tissue and the Evans blue content are determined by the dry wet method, and brain tissue is examined by electron microscope.

[2] = system: cerebral hemorrhage in rats induced by collagenase; experiment: cerebral hemorrhage (ICH) model induced by collagenase: neurology score; format: in vivo, Wistar rats
Procedure: (§1) Animals are randomly divided into five groups: sham operation 24 h group; cerebral hemorrhage (Intracerebral Haemorrhage, ICH)+physiological saline group (model); ICH+piperphentonamine hydrochloride (JBTA, 2 mg/kg) group, called as high dose group (h); ICH+piperphentonamine hydrochloride (JBTA, 0.5 mg/kg) group, called as low dose group (1); ICH+nimodipine (Nim, 0.5 mg/kg) group. The last four groups are divided into 4 h, 8 h, 12 h, 24 h as four time subgroups respectively. Physiological saline solution, piperphentonamine hydrochloride and nimodipine are intravenously injected from rat tail before the ICH model is established for 30 minutes, once a day. Injecting slowly, the total amount of drug liquid is controlled in 1 ml/200 g body weight: physiological saline solution also being administered in 1 ml/200 g body weight. Each group has 7 Wistar rats.
The specific steps are as following: after the experimental rats are anesthetized by injecting chloral hydrate (350 mg/kg) in intraperitoneal, and being supinely immobilized in a stereotaxic instrument, and make the rat anterior fontanelle and posterior fontanelle in the same plane according to localization method reported by BAO Xinmin, etc. Being locally disinfected by iodine, incising in the midmost of scalp, scissoring the periosteum, exposing the anterior fontanelle, drilling a 1 mm diameter hole with thickness close to duramater in 3 mm left to the midline by number five needle. Inserting needle along the hole by the micro syringe fixed on a stereotaxic, the depth of needle insertion is 5.8 mm (i.e., the caudate nucleus position), slowly injecting collagenase VI 0.5 U. Injection time is 3 min, keeping for 5 min after injection, then pull the needle out, suturing the skin, and putting the rat into cage and feed. Inserting the needle and not injecting drugs in sham operation group, the remaining operations is the same as the above.
After animals wake up, scoring nerve function defect of each group immediately according to the grading classification standards of nerve defect reported by Bedersog (litter improved).
Choosing the animals with the score of 3 and more into the experiment, the animals are bred in different cages, eat and drink normally. Temperature is controlled in 20 to 25° C., score in 4 h, 8 h, 12 h, 24 h after establishment of the model.
(§2) Divide the animals randomly into five groups: sham operation (sham) 24 h group; ICH+normal saline group (model); ICH+piperphentonamine maleate (4 mg/kg) group, namely high dose group (h); ICH+piperphentonamine maleate (2 mg/kg) group, namely low dose group (1); ICH+nimodipine (0.5 mg/kg) group. The last four groups were divided into four time subgroup of 4 h, 8 h, 12 h and 24 h. Physiological solution, piperphentonamine maleate and nimodipine were injected intravenous from rat tail vein 30 minutes before the ICH model made, once a day. Inject slowly, the total amount of drug liquid was controlled in 1 ml/200 g body weight: normal saline was also administered in 1 ml/200 g body weight. Each group has seven Wistar rats.

[3] = system: cerebral hemorrhage in rats induced by collagenase; experiment: ICH model induced by collagenase: brain water content (BWC); format: in vivo, Wistar rats
Procedure: as §1
Observing the influence of piperphentonamine hydrochloride on the brain water content of intracerebral hemorrhage in rats in 4 h, 8 h, 12 h, 24 h, the animals of the different groups is anesthetized by chloral hydrate at predetermined time point, and decollating and taking the brain rapidly, putting the brain tissue on a filter paper wetted by saline solution to prevent water evaporating. Removing the leptomeninges and blood, cutting and taking the front half portion of brain tissue centered by the hole for the insertion needle, weighing precisely (accurate to 0.1 mg). It is controlled in 5 min to take the brain to finish weigh. Then putting in 95° C. constant temperature oven for 24 h, weighing the dry weight. The brain water content is calculated according to Blliot formula: BWC=(wet weight−dry weight)/wet weight×100%.
as §2

[4] = system: cerebral hemorrhage in rats induced by collagenase; experiment: ICH model induced by collagenase: NE in brain tissue by ELISA; format: in vivo, Wistar rats
Description: (§3) Rats in each group were anesthetized by chloral hydrate, decollated rapidly and the brains were taken out. The brain tissue around the hole was cut and procured, weighed precisely, and made into a 10% tissue homogenate using a glass homogenizer in an ice bath environment with physiological saline as homogenized medium, the supernatant of which was taken to be determined the NE activity using ELISA method.

[5] = system: cerebral hemorrhage in rats induced by collagenase; experiment: ICH model induced by collagenase: NO in brain tissue by nitrate reductase method; format: in vivo, Wistar rats
Description: as §3, with “brain take” for “brains”, “content of NO by nitrate reductase” for “NE activity using ELISA”

[6] = system: cerebral hemorrhage in rats induced by collagenase; experiment: ICH model induced by collagenase: histopathological observation; format: in vivo, Wistar rats
Procedure: Influence of piperphentonamine hydrochloride on pathological morphology of cerebral hemorrhage in rats was observed. Each group animals were selected randomly, anesthetized deeply by chloral hydrate at predetermined time point, decollated and the brain were taken out rapidly, then, the brain tissue slices with hematoma (about 5 mm) were cut, and put into 10% formaldehyde solution immediately, fixed for 24 h followed by dehydration by graded ethanol, transparentizing by xylene, immersing in paraffin, embedding, slicing (5 μm), HE staining and sealing. The pathological changes area and the pathological change of the adjacent brain tissue were observed by optical microscope.

[7] = system: cerebral hemorrhage of rats (autologous blood); experiment: cerebral hemorrhage by autologous blood into caudate nucleus: edema (dry-wet weight) and forelimb placement; format: in vivo, SD rats; conditions: local administering 3 h after hemorrhage
Procedure: Adult male SD rats were divided randomly into normal saline group, cerebral hemorrhage group and piperphentonamine maleate group. A model of cerebral hemorrhage was established by the methods of injecting 50 μl autologous blood into caudate nucleus of rats, wherein, the position of caudate nucleus was determined according to “the rat cerebral in stereotaxic atlas”: the injection position is at the point of front to anterior fontanelle of 0.2 mm, right to the sagittal suture of 3.0 mm, depth of 6.3 mm. The change of cerebral edema was observed by the dry-wet weight method; the behavior was observed by forelimb placement experiment. The cerebral hemorrhage group was only injected without medicine, with the treatment time of at 3 h after hemorrhage. The edema measurement time was in 1, 2, 3, 7, 14 days after hemorrhage, the behavioral observation time phase was in 1, 2, 3, 7, 14, 28 days after hemorrhage, each group of each time phase had 6 rats.

[8] = system: cultured cerebral neurons; experiment: NMDA induces neuron injury in primary cultured neurons; format: cell-based, rat; conditions: drug 50 mmol/L; NMDA 50 mmol/L, 12 h
[9] = system: cerebral edema of mice caused by closed cerebral trauma; experiment: closed cerebral trauma model of mice, brain water content; format: in vivo, Kunming mice; conditions: 2 mg/kg iv, brain taken after 24 h
Procedure: There were 10 mice in each group.
The closed cerebral trauma model of mice being established after fasting for 16 hours, administering intravenously to each group, striping and taking the brain of mouse after 24 hours, weighing the wet weight, and drying at 70° C. for 24 hours, then weighing the dry weight, and calculating brainwater content; the brain water content which is higher than normal values indicates the cerebral edema.
The grouping method, administer method and model preparation were referred to example 2.

human brain disease = experiment: research in treating human brain diseases (no details); format: in vivo
[10] = 24 h, Nim 0.25 mg/kg iv once per 8 h
[11] = 0.5 mg/kg iv 30 min before ICH, 4 h
[12] = 0.5 mg/kg iv 30 min before ICH, 8 h
[13] = 0.5 mg/kg iv 30 min before ICH, 8 h (example 12)
[14] = 0.5 mg/kg iv 30 min before ICH, 12 h
[15] = 0.5 mg/kg iv 30 min before ICH, 12 h (example 12)
[16] = 0.5 mg/kg iv 30 min before ICH, 24 h
[17] = 0.5 mg/kg iv 30 min before ICH, 24 h (example 12)
[18] = 2 mg/kg iv 30 min before ICH, 4 h (example 12)
[19] = 2 mg/kg iv 30 min before ICH, 8 h (example 12)
[20] = 2 mg/kg iv 30 min before ICH, 12 h (example 12)
[21] = 2 mg/kg iv 30 min before ICH, 24 h (example 12)
[22] = 4 mg/kg iv 30 min before ICH, 8 h
[23] = 4 mg/kg iv 30 min before ICH, 12 h
[24] = 4 mg/kg iv 30 min before ICH, 24 h

With `COCCOC(=O)C1=C(C)NC(C)=C(C(=O)OC(C)C)C1c1cccc([N+](=O)[O-])c1` (stereo not shown) [nimodipine, reference compound] the “BWC(%)” value ([1]; 30 min, Nim 0.25 mg/kg iv) was 77.26 ± 0.34 %, the EB ([1]; 30 min, Nim 0.25 mg/kg iv) was 2.0 ± 0.18 μg/g ww and the “BWC(%)” value ([1]; 4 h, Nim 0.25 mg/kg iv) was 77.15 ± 0.66 %. For the same compound, the EB ([1]; 4 h, Nim 0.25 mg/kg iv) was 2.65 ± 0.44 μg/g ww, the “BWC(%)” value [1, 10] was 76.98 ± 0.50 % and the EB [1, 10] was 2.00 ± 0.6 μg/g ww. The neurological score [2, 11] was 4.5 ± 0.87, the neurological score ([2]; 0.5 mg/kg iv 30 min before ICH, 4 h (example 12)) was 3.65 ± 0.8 and the neurological score [2, 12] was 4.07 ± 1.14. For the same compound, the neurological score [2, 13] was 3.25 ± 0.91, the neurological score [2, 14] was 2.57 ± 1.14 and the neurological score [2, 15] was 2.05 ± 0.91. For the same compound, the neurological score [2, 16] was 1.94 ± 0.74, the neurological score [2, 17] was 1.55 ± 0.59**^Δ and the “brain water content (%)” value [3, 11] was 79.31 ± 0.76 %. The brain water content ([3]; 0.5 mg/kg iv 30 min before ICH, 4 h (example 12), in %) was 62.20 ± 0.59, the “brain water content (%)” value [3, 12] was 79.95 ± 0.36^Δ** % and the brain water content [3, 13] was 62.70 ±0.25^Δ**. For the same compound, the “brain water content (%)” value [3, 14] was 81.35 ± 0.71^ΔΔ** %, the brain water content [3, 15] was 63.8 ± 0.56^ΔΔ** and the “brain water content (%)” value [3, 16] was 82.89 ± 0.68^ΔΔ** %. For the same compound, the brain water content [3, 17] was 65.02 ± 0.54^ΔΔ**, the NE ([4]; 0.5 mg/kg, ICH rat brain tissue homogenate) was 1.88 ± 0.035^a ng/ml and the NO ([5]; 0.5 mg/kg, ICH rat brain tissue) was 2.40 ± 0.05^Δ μmol/g pro.
`CN(CCC(=O)/C=C/c1ccc(O)cc1)CCc1ccc2c(c1)OCO2.O=C(O)/C=C\C(=O)O` [piperphentonamine maleate] showed a neurological score [2, 18] of 3.61 ± 0.7, a neurological score [2, 19] of 3.43 ± 0.82 and a neurological score [2, 20] of 2.92 ± 0.95. The neurological score [2, 21] was 2.57 ± 1.28, the neurological score ([2]; 4 mg/kg iv 30 min before ICH, 4 h) was 3.25 ± 0.59 and the neurological score [2, 22] was 3.08 ± 0.95. For the same compound, the neurological score [2, 23] was 1.88 ± 0.64*^Δ, the neurological score [2, 24] was 1.37 ± 0.46**^ΔΔ and the brain water content [3, 18] was 62.66 ± 0.66^Δ. For the same compound, the brain water content [3, 19] was 63.88 ± 0.55^ΔΔ, the brain water content [3, 20] was 64.86 ± 0.59^ΔΔ and the brain water content [3, 21] was 66.33 ± 0.5^ΔΔ. The brain water content ([3]; 4 mg/kg iv 30 min before ICH, 4 h, in %) was 62.19 ± 0.54, the brain water content [3, 22] was 62.53 ± 0.42^Δ** and the brain water content [3, 23] was 63.38 ± 0.15^ΔΔ**. For the same compound, the brain water content [3, 24] was 64.62 ± 0.58^ΔΔ**, the histopathological observation ([6]; large dose (4 mg/kg) pretreatment) was “obviously reduce tissue edema and inflammatory cell infiltration after cerebral hemorrhage” and the histopathological observation ([6]; small dose maleate (2 mg/kg) or nimodipine (0.5 mg/kg) in advance) was “could ease the pathological changes above-mentioned in different levels”. For the same compound, the NE ([4]; high dose group (h), 4 mg/kg, ICH rat brain tissue) was 2.37 ± 0.07^ΔΔ ng/ml, the NE ([4]; low dose group (l), 2 mg/kg, ICH rat brain tissue) was 2.78 ± 0.05^ΔΔ ng/ml and the NO ([5]; 2 mg/kg, ICH rat brain tissue (example 12)) was 2.16 ± 0.05^Δ μmol/g pro. The NO ([5]; 4 mg/kg, ICH rat brain tissue) was 1.48 ± 0.03^Δ μmol/g pro, the “cerebral edema after cerebral hemorrhage” value [7] was “could obviously relieve cerebral edema after cerebral hemorrhage” and the “neural function defect after cerebral hemorrhage (forelimb placement)” value [7] was “improve the neural function defect after cerebral hemorrhage”.
piperphentonamine was tested, and the mortality [8] was 30%, the “water content of cerebra (%)” value [9] was 78.31 ± 5.72 % and the “pathological morphology of cerebral hemorrhage” value ([6]; small doses (0.5 mg/kg) in advance) was “could ease the pathological changes above-mentioned in different levels”. For the same compound, the “treating human brain and other diseases” value (human brain disease) was “obvious effect and clinical significance”.
